Laboratory results from article PMC12467433, “Isoniazid-Derived Hydrazones Featuring Piperazine/Piperidine Rings: Design, Synthesis, and Investigation of Antitubercular Activity” (Biomolecules, 2025).
Values after ≈ are worked out from the molar mass of the structure shown. Like-named read-outs stand apart in the source and are kept apart here.

How the values were obtained:
[1] = test system: Mtb H37Rv; assay: Microplate Alamar Blue Assay (MABA), Mtb H37Rv; assay type: cell-based, Mycobacterium tuberculosis; conditions: for MIC: MABA, one-week incubation
[2] = target: T1, InhA (Mycobacterium tuberculosis, UniProt P9WGR1); assay: InhA inhibition (NADH oxidation at 340 nm, DDCoA substrate); assay type: biochemical; conditions: for inhibition at 50 µM: at 50 μM concentration, NI: No inhibition
T1 construct: made in house
T1 sequence (P9WGR1 whole entry, looked up): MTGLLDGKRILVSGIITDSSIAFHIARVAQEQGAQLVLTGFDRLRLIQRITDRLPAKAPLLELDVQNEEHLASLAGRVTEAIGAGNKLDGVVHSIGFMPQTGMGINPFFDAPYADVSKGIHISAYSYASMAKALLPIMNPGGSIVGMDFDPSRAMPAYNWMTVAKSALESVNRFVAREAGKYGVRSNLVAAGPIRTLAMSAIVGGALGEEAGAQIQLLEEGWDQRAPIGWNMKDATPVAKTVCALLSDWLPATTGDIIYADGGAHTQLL

[3] = MTT cytotoxicity assay, HEK 293; assay type: cell-based; conditions: human, HEK 293 cells, HEK 293, MTT, triplicate, read-out: Toxicity IC50
From the text: (§1) 2.2.2. Assay for Host Cytotoxicity Determination
(§2) The MTT (3-(4,5-dimethylthiazol-2-yl)-2,5-diphenyltetrazolium bromide) assay was applied to determine the cytotoxicity of the synthesized molecules against Human Embryonic Kidney cells (HEK 293) and adenocarcinomic human alveolar basal epithelial cells (A549) cell lines, obtained from the American Type Culture Collection (ATCC) with the accession numbers ATCC CRL-1573 and ATCC CCL-185, respectively. […] A vehicle control containing 1% DMSO in culture medium without any compound was included to account for any solvent-related effects. Cells were seeded at a density of 1 × 10^4 cells per well in a sterile 96-well microtiter plate and incubated for 24 h to allow attachment. Following this, the compounds were added in ten-fold serial dilutions ranging from 100 μM to 0.001 μM, and the plates were incubated for 48 h at 37 °C with 5% CO2.
(§3) After incubation, the medium was removed and replaced with 10 μL of MTT solution (5 mg/mL) in each well, followed by a 3 h incubation under the same conditions. The MTT reagent was then discarded, and 100 μL of DMSO was added to each well to solubilize the formazan crystals. Absorbance was measured at 580 nm using a Thermo Scientific Varioskan LUX microplate reader, with blanks subtracted from each value. All experiments were performed in three independent biological replicates, for every concentration tested. The IC50 values were calculated using GraphPad Prism 10.6.0 [28, 29].

[4] = MTT cytotoxicity assay, A549; assay type: cell-based; conditions: human, A549 cells, triplicate, read-out: Toxicity IC50
From the text: as §1, §2, §3

[5] = Mycobacterium tuberculosis, H37RV, 168 h

| Compound | MIC50 ([1]; Mycobacterium tuberculosis) [µM] | MIC [1, 5] [µM] | inhibition at 50 µM [2] [%] | MIC [1] [µM] | IC50 at 48 h [3] [µM] | IC50 at 48 h [4] [µM] | MIC50 [1] [µM] | IC50 ([2]; read-out: IC50 against InhA enzyme) [µM] |
| --- | --- | --- | --- | --- | --- | --- | --- | --- |
| NNC(=O)c1ccncc1 [INH, isonicotinic acid hydrazide, reference compound] | 0.23 ± 0.04 (≈ 0.0315 µg/mL) | 0.39 (≈ 0.0535 µg/mL) |  |  |  |  |  |  |
| O=C(NN=Cc1ccc(N2CCN(c3ccccc3)CC2)cc1)c1ccncc1 [IP1, N′-(4-(4-Phenylpiperazin-1-yl)benzylidene)isonicotinohydrazide] |  | 50 (≈ 19.3 µg/mL) | < 10 |  |  |  |  |  |
| O=C(NN=Cc1ccc(N2CCN(c3ccccc3F)CC2)cc1)c1ccncc1 [IP2, N′-(4-(4-(2-Fluorophenyl)piperazin-1-yl)benzylidene)isonicotinohydrazide] |  | > 100 | 19 | >100 |  |  |  |  |
| O=C(NN=Cc1ccc(N2CCN(c3ccc(Cl)cc3)CC2)cc1)c1ccncc1 [IP3, N′-(4-(4-(4-Chlorophenyl)piperazin-1-yl)benzylidene)isonicotinohydrazide] |  | 50 (≈ 21 µg/mL) | 21 |  |  |  |  |  |
| O=C(NN=Cc1ccc(N2CCN(c3ccc(Br)cc3)CC2)cc1)c1ccncc1 [IP4, N′-(4-(4-(4-Bromophenyl)piperazin-1-yl)benzylidene)isonicotinohydrazide] |  | 100 (≈ 46.4 µg/mL) | < 10 |  |  |  |  |  |
| Cc1ccc(N2CCN(c3ccc(C=NNC(=O)c4ccncc4)cc3)CC2)c(C)c1 [IP5, N′-(4-(4-(2,4-Dimethylphenyl)piperazin-1-yl)benzylidene)isonicotinohydrazide] |  | 50 (≈ 20.7 µg/mL) | 16 |  |  |  |  |  |
| O=C(NN=Cc1ccc(N2CCN(c3ccc(C(F)(F)F)cc3)CC2)cc1)c1ccncc1 [IP6, N′-(4-(4-(4-(Trifluoromethyl)phenyl)piperazin-1-yl)benzylidene)isonicotinohydrazide] |  | 12.5 (≈ 5.67 µg/mL) | 37 |  |  |  |  |  |
| COc1ccc(N2CCN(c3ccc(C=NNC(=O)c4ccncc4)cc3)CC2)cc1 [IP7, N′-(4-(4-(4-Methoxyphenyl)piperazin-1-yl)benzylidene)isonicotinohydrazide] | 0.74 ± 0.1 (≈ 0.307 µg/mL) | ≤ 0.78 | 10 |  |  |  |  |  |
| O=C(NN=Cc1ccc(N2CCN(c3ccccn3)CC2)cc1)c1ccncc1 [IP8, N′-(4-(4-(Pyridin-2-yl)piperazin-1-yl)benzylidene)isonicotinohydrazide] | 0.31 ± 0.21 (≈ 0.12 µg/mL) | ≤ 0.78 | < 10 |  | > 100 | > 100 |  |  |
| O=C(NN=Cc1ccc(N2CCN(c3ncccn3)CC2)cc1)c1ccncc1 [IP9, N′-(4-(4-(Pyrimidin-2-yl)piperazin-1-yl)benzylidene)isonicotinohydrazide] | 0.79 ± 0.23 (≈ 0.306 µg/mL) | ≤ 0.78 | < 10 |  | > 100 | > 100 |  |  |
| CN1CCN(c2ccc(C=NNC(=O)c3ccncc3)cc2)CC1 [IP10, N′-(4-(4-Methylpiperazin-1-yl)benzylidene)isonicotinohydrazide] | 0.31 ± 0.04 (≈ 0.1 µg/mL) | ≤ 0.78 | 30 |  | > 100 | > 100 |  |  |
| O=C(NN=Cc1ccc(N2CCN(C3CCCCC3)CC2)cc1)c1ccncc1 [IP11, N′-(4-(4-Cyclohexylpiperazin-1-yl)benzylidene)isonicotinohydrazide] | 0.29 ± 0.05 (≈ 0.114 µg/mL) | ≤ 0.78 | 81 |  | > 100 | > 100 | 0.29 (≈ 0.114 µg/mL) | 26.4 ± 3.97 |
| CCOC(=O)C1CCN(c2ccc(C=NNC(=O)c3ccncc3)cc2)CC1 [IP12, Ethyl 1-(4-((2-isonicotinoylhydrazono)methyl)phenyl)piperidine-4-carboxylate] | 0.47 ± 0.05 (≈ 0.179 µg/mL) | ≤ 0.78 | 17 |  | > 100 | > 100 |  |  |
| NC(=O)C1CCN(c2ccc(C=NNC(=O)c3ccncc3)cc2)CC1 [IP13, 1-(4-((2-Isonicotinoylhydrazono)methyl)phenyl)piperidine-4-carboxamide] | 0.53 ± 0.24 (≈ 0.186 µg/mL) | ≤ 0.78 | < 10 |  | > 100 | > 100 |  |  |
